The results in this text go back to ChEMBL document CHEMBL3102725, “Trichodermone, a spiro-cytochalasan with a tetracyclic nucleus (7/5/6/5) skeleton from the plant endophytic fungus Trichoderma gamsii” (J Nat Prod, 2014).

This assay concerns HeLa. The experiment in a line: Cytotoxicity against human HeLa cells by MTT assay. Format: functional, cell-based. Background: Tetrazolium assays rely on reduction of a dye to a coloured formazan, in cell work by metabolically active cells.

For `CC1=C[C@@H]2/C=C(\C)CC[C@H](O)[C@H](O)/C=C/C(=O)[C@]23C(=O)N[C@@H](CC(C)C)[C@@H]3[C@@H]1C` [ASPOCHALASIN D], the IC50 – broadly, the concentration that gives 50% inhibition – stood at 5.72 µM. For `CC(=O)O[C@H]1C(=O)[C@@]2(C)[C@H]([C@H](OC(=O)c3ccccc3)[C@]3(O)C[C@H](OC(=O)[C@H](O)[C@@H](NC(=O)c4ccccc4)c4ccccc4)C(C)=C1C3(C)C)[C@]1(OC(C)=O)CO[C@@H]1C[C@@H]2O` [PACLITAXEL] the value was 0.0025 µM.
